Measurements taken from patent US20240190831A1, “TRANSTHYRETIN STABILIZING COMPOUNDS” (Protego Biopharma, Inc., priority 2021, published 2024).

Test: In vitro rat liver S9 stability assay (formation of tafamidis)
Format: in vitro ADME
Conditions: rat liver S9, 1 μM test compound, 37° C.
Protocol: A stability assay in liver S9 (rat or human) was used to evaluate the ability of a compound provided herein to convert to an active TTR stabilizer. The test compound was added to liver S9 and incubated at 37° C. in a water bath at a concentration of 1 μM. At each time point (0, 5, 10, 20, 30 and 60 min), stop solution (tolbutamide plus labetalol) was added to precipitate protein and mixed thoroughly. After centrifugation, an aliquot of supernatant was analyzed by LC-MS/MS. The percentage of formation of active agent was calculated at each time point.

SMILES	Formation of tafamidis at 60 min
CN1CCC(NC(=O)c2ccc3nc(-c4cc(Cl)cc(Cl)c4)oc3c2)C1 (stereo not drawn) [Compound 21, 2-(3,5-dichlorophenyl)-N-(1-methylpyrrolidin-3-yl)benzo[d]oxazole-6-carboxamide]	A (A is <25%)
O=C(NC1CCN(CCF)C1)c1ccc2nc(-c3cc(Cl)cc(Cl)c3)oc2c1 (stereo not drawn) [Compound 22, 2-(3,5-dichlorophenyl)-N-(1-(2-fluoroethyl)pyrrolidin-3-yl)benzo[d]oxazole-6-carboxamide]	A (A is <25%)
O=C(NC1CCN(CC(F)F)C1)c1ccc2nc(-c3cc(Cl)cc(Cl)c3)oc2c1 (stereo not drawn) [Compound 23, 2-(3,5-dichlorophenyl)-N-(1-(2,2-difluoroethyl)pyrrolidin-3-yl)benzo[d]oxazole-6-carboxamide]	A (A is <25%)
O=C(NC1CCN(CC(F)(F)F)C1)c1ccc2nc(-c3cc(Cl)cc(Cl)c3)oc2c1 (stereo not drawn) [Compound 24, 2-(3,5-dichlorophenyl)-N-(1-(2,2,2-trifluoroethyl)pyrrolidin-3-yl)benzo[d]oxazole-6-carboxamide]	A (A is <25%)
O=C(N[C@H]1C[C@H](O)C1)c1ccc2nc(-c3cc(Cl)cc(Cl)c3)oc2c1 [Compound 26, 2-(3,5-dichlorophenyl)-N-((trans)-3-hydroxycyclobutyl)-benzo[d]oxazole-6-carboxamide]	A (A is <25%)
O=C(N[C@H]1C[C@@H](O)C1)c1ccc2nc(-c3cc(Cl)cc(Cl)c3)oc2c1 [Compound 27, 2-(3,5-dichlorophenyl)-N-((Cis)-3-hydroxycyclobutyl)benzo-[d]oxazole-6-carboxamide]	A (A is <25%)
O=C(OCCc1ccn[nH]1)c1ccc2nc(-c3cc(Cl)cc(Cl)c3)oc2c1 [Compound 36, 2-(1H-pyrazol-5-yl) ethyl 2-(3,5-dichlorophenyl)benzo[d]oxazole-6-carboxylate]	D (D is ≥75%)
CCC(Cc1ncc[nH]1)OC(=O)c1ccc2nc(-c3cc(Cl)cc(Cl)c3)oc2c1 (stereo not drawn) [Compound 37, 1-(1H-imidazol-2-yl) butan-2-yl 2-(3,5-dichlorophenyl)benzo-[d]oxazole-6-carboxylate]	A (A is <25%)
CC(Cc1ccn[nH]1)OC(=O)c1ccc2nc(-c3cc(Cl)cc(Cl)c3)oc2c1 (stereo not drawn) [Compound 38, 1-(1H-pyrazol-5-yl)propan-2-yl 2-(3,5-dichlorophenyl) benzo[d]oxazole-6-carboxylate]	B (B is ≥25 to <50%)
O=C(OCCCO)c1ccc2nc(-c3cc(Cl)cc(Cl)c3)oc2c1 [Compound 40, 3-hydroxypropyl 2-(3,5-dichlorophenyl)benzo[d]oxazole-6-carboxylate]	B (B is ≥25 to <50%)
CC(CCO)OC(=O)c1ccc2nc(-c3cc(Cl)cc(Cl)c3)oc2c1 (stereo not drawn) [Compound 41, 4-hydroxybutan-2-yl 2-(3,5-dichlorophenyl) benzo [d] oxazole-6-carboxylate]	C (C is ≥50 to <75%)
CC(N1CCC(OC(=O)c2ccc3nc(-c4cc(Cl)cc(Cl)c4)oc3c2)C1)C(F)(F)F (stereo not drawn) [Compound 45, 1-(1,1,1-trifluoropropan-2-yl)pyrrolidin-3-yl 2-(3,5-dichlorophenyl)benzo[d]oxazole-6-carboxylate]	B (B is ≥25 to <50%)
O=C(OC1CC(=O)N2CCCCC12)c1ccc2nc(-c3cc(Cl)cc(Cl)c3)oc2c1 (stereo not drawn) [Compound 65, 3-oxooctahydroindolizin-1-yl 2-(3,5-dichlorophenyl)benzo-[d]oxazole-6-carboxylate]	C (C is ≥50 to <75%)
CC(Cc1cnc[nH]1)OC(=O)c1ccc2nc(-c3cc(Cl)cc(Cl)c3)oc2c1 (stereo not drawn) [Compound 80]	A (A is <25%)
O=C(c1ccc2nc(-c3cc(Cl)cc(Cl)c3)oc2c1)N1CCOCC1 [Compound 81]	A (A is <25%)
O=C(c1ccc2nc(-c3cc(Cl)cc(Cl)c3)oc2c1)N1CCC(O)CC1 [Compound 82]	A (A is <25%)
O=C(c1ccc2nc(-c3cc(Cl)cc(Cl)c3)oc2c1)N1CCCC1CO (stereo not drawn) [Compound 85]	A (A is <25%)
O=C(c1ccc2nc(-c3cc(Cl)cc(Cl)c3)oc2c1)N1CC(O)C(F)(F)C1 (stereo not drawn) [Compound 86]	A (A is <25%)
CN(C)C(=O)c1ccc2nc(-c3cc(Cl)cc(Cl)c3)oc2c1 [Compound 87, 2-(3,5-Dichlorophenyl)-N,N-dimethylbenzo[d]oxazole-6-carboxamide]	A (A is <25%)
O=C(c1ccc2nc(-c3cc(Cl)cc(Cl)c3)oc2c1)N1CCCC1 [Compound 88]	A (A is <25%)
O=C(c1ccc2nc(-c3cc(Cl)cc(Cl)c3)oc2c1)N1CCCCC1 [Compound 89]	A (A is <25%)
O=C(c1ccc2nc(-c3cc(Cl)cc(Cl)c3)oc2c1)N(CCO)CC(F)F [Compound 90]	A (A is <25%)
O=C(c1ccc2nc(-c3cc(Cl)cc(Cl)c3)oc2c1)N(CCO)CCF [Compound 91]	A (A is <25%)
CC1(O)CCN(C(=O)c2ccc3nc(-c4cc(Cl)cc(Cl)c4)oc3c2)C1 (stereo not drawn) [Compound 92]	A (A is <25%)
O=C(c1ccc2nc(-c3cc(Cl)cc(Cl)c3)oc2c1)N1CC2(CC(O)C2)C1 [Compound 94]	A (A is <25%)
O=C(c1ccc2nc(-c3cc(Cl)cc(Cl)c3)oc2c1)N1CCCCC1CO (stereo not drawn) [Compound 95]	A (A is <25%)
O=C(N[C@H]1CC[C@@H](O)CC1)c1ccc2nc(-c3cc(Cl)cc(Cl)c3)oc2c1 [Compound 96]	A (A is <25%)

Second part, the compound after the results:

Formation of tafamidis at 60 min	SMILES
B (B is ≥25 to <50%)	CC1(C)CCC(OC(=O)c2ccc3nc(-c4cc(Cl)cc(Cl)c4)oc3c2)C1 (stereo not drawn) [Compound 48, 3,3-dimethylcyclopentyl 2-(3,5-dichlorophenyl)benzo[d]oxazole-6-carboxylate]
B (B is ≥25 to <50%)	O=C(OC1CCN(c2cccnc2)C1)c1ccc2nc(-c3cc(Cl)cc(Cl)c3)oc2c1 (stereo not drawn) [Compound 49, 1-(pyridin-3-yl)pyrrolidin-3-yl 2-(3,5-dichlorophenyl)benzo-[d]oxazole-6-carboxylate]
A (A is <25%)	O=C(OC1CCN(c2ccncc2)C1)c1ccc2nc(-c3cc(Cl)cc(Cl)c3)oc2c1 (stereo not drawn) [Compound 50, 1-(pyridin-4-yl)pyrrolidin-3-yl 2-(3,5-dichlorophenyl)benzo-[d]oxazole-6-carboxylate]
B (B is ≥25 to <50%)	O=C(OC1CCN(c2ncccn2)C1)c1ccc2nc(-c3cc(Cl)cc(Cl)c3)oc2c1 (stereo not drawn) [Compound 51, 1-(pyrimidin-2-yl)pyrrolidin-3-yl 2-(3,5-dichlorophenyl)benzo-[d]oxazole-6-carboxylate]
A (A is <25%)	O=C(OC1CCN(c2cnccn2)C1)c1ccc2nc(-c3cc(Cl)cc(Cl)c3)oc2c1 (stereo not drawn) [Compound 52, 1-(pyrazin-2-yl)pyrrolidin-3-yl 2-(3,5-dichlorophenyl)benzo-[d]oxazole-6-carboxylate]
A (A is <25%)	O=C(OC1CCN(c2ccncn2)C1)c1ccc2nc(-c3cc(Cl)cc(Cl)c3)oc2c1 (stereo not drawn) [Compound 53, 1-(pyrimidin-4-yl)pyrrolidin-3-yl 2-(3,5-dichlorophenyl)benzo-[d]oxazole-6-carboxylate]
A (A is <25%)	O=C(OC1CCN(c2cccnn2)C1)c1ccc2nc(-c3cc(Cl)cc(Cl)c3)oc2c1 (stereo not drawn) [Compound 54, 1-(pyridazin-3-yl)pyrrolidin-3-yl 2-(3,5-dichlorophenyl)benzo-[d]oxazole-6-carboxylate]
B (B is ≥25 to <50%)	O=C(OC1CCN2CCCCC12)c1ccc2nc(-c3cc(Cl)cc(Cl)c3)oc2c1 (stereo not drawn) [Compound 55, Octahydroindolizin-1-yl 2-(3,5-dichlorophenyl)benzo[d]oxazole-6-carboxylate]
A (A is <25%)	Cc1ncc2n1CC(OC(=O)c1ccc3nc(-c4cc(Cl)cc(Cl)c4)oc3c1)CC2 (stereo not drawn) [Compound 56, 3-methyl-5,6,7,8-tetrahydroimidazo [1,5-a] pyridin-6-yl 2-(3,5-dichlorophenyl) benzo[d]oxazole-6-carboxylate]
A (A is <25%)	CC(C)(N1CCC(OC(=O)c2ccc3nc(-c4cc(Cl)cc(Cl)c4)oc3c2)C1)C(F)(F)F (stereo not drawn) [Compound 57, 1-(1,1,1-trifluoro-2-methylpropan-2-yl)pyrrolidin-3-yl 2-(3,5-dichlorophenyl)benzo[d]oxazole-6-carboxylate]
A (A is <25%)	O=C(OC1CCc2nc[nH]c2C1)c1ccc2nc(-c3cc(Cl)cc(Cl)c3)oc2c1 (stereo not drawn) [Compound 60, 4,5,6,7-tetrahydro-1H-benzo[d]imidazol-6-yl 2-(3,5-dichlorophenyl) benzo[d]oxazole-6-carboxylate]
A (A is <25%)	O=C(O[C@H]1C[C@@H](O)C1)c1ccc2nc(-c3cc(Cl)cc(Cl)c3)oc2c1 [Compound 63, (cis)-3-hydroxycyclobutyl 2-(3,5-dichlorophenyl) benzo[d]oxazole-6-carboxylate]
B (B is ≥25 to <50%)	O=C(O[C@H]1C[C@H](O)C1)c1ccc2nc(-c3cc(Cl)cc(Cl)c3)oc2c1 [Compound 64, (trans)-3-hydroxycyclobutyl 2-(3,5-dichlorophenyl) benzo[d]oxazole-6-carboxylate]
A (A is <25%)	O=C(OC1CCN(CCO)C1)c1ccc2nc(-c3cc(Cl)cc(Cl)c3)oc2c1 (stereo not drawn) [Compound 66]
A (A is <25%)	COCCN1CCC(OC(=O)c2ccc3nc(-c4cc(Cl)cc(Cl)c4)oc3c2)C1 (stereo not drawn) [Compound 67, 1-(2-methoxyethyl) pyrrolidin-3-yl 2-(3,5-dichlorophenyl) benzo[d]oxazole-6-carboxylate]
